One assay concerns N-terminus of APP. Kind of assay: Co-immunoprecipitation and co-localisation with N-terminal APP in CHO/APPwt cells. The assay is classed as binding, human. The conditions noted are these: peptides 10 μM or apoE 10 μg/mL, 2 h; IP with 6H3B5 or pN-APP. How it is done:
Total secreted APP (t-sAPP) and full-length APP (f-APP) in total (inputs), immunoprecipitates and immunodepleted media and lysates were determined by WB using 22C11 or anti-C-terminal APP751/70 antibody (pC-APP), respectively (FIG. 20A left panels and FIG. 20B, top panels). Alternatively, conditioned media and cell lysates were IP with anti-N-terminal APP41/66 antibody (pN-APP) and apoE, or 6KApoEp and ApoEp, was determined using anti-human apoE antibody (ApoE1H4; FIG. 20A, right panels) or 6H3B5, respectively (FIG. 20B, bottom panels). In addition, CHO/APPwt cells were plated at 8 well-chambers at 1×10^5/well for 24 h, treated with 6K, ApoEp or 6KApoEp at 10 μM for 2 h, fixed in 4% paraformaldehyde and stained with 6H3B5 and pN-APP antibodies (FIG. 20C). Alexa Fluor 488 goat anti-mouse IgG (green) was used to detect ApoEp and 6KApoEp, while Alexa Fluor 594 donkey anti-rabbit IgG (red) was used to detect N-terminal APP. DAPI co-staining was done to show nuclear DNA. Homogenates prepared from three TgAPPwt mice (2 female/1 male), two AD patients (AD1[…], AD2[…]) and two normal age-matched control cortices (Ctrl1[…], Ctrl2[…]) were also IP with 6H3B5 or pN-APP and t-APP and apoE were determined using 6E10 and mApoE, respectively (FIGS. 20D-20E).
Total secreted APP in conditioned media and full length APP in cell lysates were then determined by WB using anti-N-terminal (22C11) and anti-C-terminal APP antibodies (pC-APP), respectively. […] In addition, ApoEp and 6KApoEp colocalized with N-terminal APP in cultured CHO/APPwt cells as determined by immunofluorescence staining with 6H3B5 and pN-APP antibodies (FIG. 20C), respectively, confirming that N-terminal APP physically associates with apoE in cell culture. […]
WB analyses were performed as previously described^43,44. […] For all other proteins detected by WB, 10% tris-SDS gels were used. Densitometry analysis was performed as previously described using a FluorS Multiimager with Quantity One™ software 43. […]

Assay [1] relates to N-terminal APP (sAPPα, sAPPβ, APP31/60). Kind of assay: In vitro co-immunoprecipitation with recombinant sAPPα/β and APP31/60. The assay is classed as binding, human. The settings on record: sAPPα 100 nM, apoE4 100 nM, 6KApoEp or 6K at 5 or 10 μM, 1 h, 37° C.; P<0.05 at 10 μM.
N-terminal APP (sAPPα, sAPPβ, APP31/60), sequence (P05067 18-189 limits assumed): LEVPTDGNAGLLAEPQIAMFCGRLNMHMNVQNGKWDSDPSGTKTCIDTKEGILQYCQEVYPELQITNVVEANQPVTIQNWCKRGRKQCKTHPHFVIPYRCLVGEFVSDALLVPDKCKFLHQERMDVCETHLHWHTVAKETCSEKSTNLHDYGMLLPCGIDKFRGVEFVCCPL

N-terminus of APP, sequence (P05067 18-189 limits assumed): as above

As to “6K: 6 lysines control peptide (KKKKKK) [reference compound]”, the “immunoprecipitation and localization with N-terminal APP” value in the assay with N-terminus of APP was “but not 6K, immunoprecipitated and localized with N-terminal APP”. Also, in assay [1], the “co-immunoprecipitation of sAPPα with apoE4 (apoE4/sAPPα band density ratio)” value is recorded as “but not 6K, reduced co-immunoprecipitation of sAPPα with apoE4”.
